Experimental data taken from patent US20070255061A1, “5-Fluoro-, Chloro-and Cyano-Pyridin-2-Yl-Tetrazoles as Ligands of the Metabotropic Glutamate Receptor-5” (AstraZeneca AB, priority 2003, published 2007).
≈ marks a conversion by molar mass, not a printed value.

Experiments:
[1] = Aqueous solubility in 0.1 M phosphate buffer pH 7.4; type: physicochemical; settings: for solubility at 24 h: 21 °C, aqueous buffer, thermodynamic from solid, 0.1 M phosphate buffer, pH 7.4, 20 to 22° C., read-out: aq. Solubility
Method: Duplicate of 1-2 mg of the test compound are incubated in 0.1 M phosphate buffer, pH 7.4, in 2 mL glass-vials on a plate bed shaker (IKA®-Schüttler MTS-4, IKA Labortechnik) at 300 rpm at a temperature of 20 to 22° C. for 24 hours. Non-dissolved material is centrifugated down from the saturated solution at 3000 rpm for 2×15 minutes at 22° C. (Multifuge® 3 S-R, Heraeus). The aqueous supernatant is transferred to glass-vials and aliquotes used for quantitative analysis using reversed HPLC with MS confirmation of compound identity. Quantification is performed by the UV-trace of the chromatogram against a calibration curve, 0-200 μM, of the test compound dissolved in DMSO at the wavelength of a positive inflection point of the UV spectrum. The reported values (aq. solubility) are the mean values of duplicate HPLC-analysis of two independent incubations.

[2] = Metabolic stability in pooled human liver microsomes; type: in vitro ADME; settings: for h.mic. FH (fraction escaping hepatic clearance): 1 μM compound, 0.5 mg microsomal protein/mL, 37° C., calculated from halflife, fu=1; for human microsomal metabolic stability (h.mic. FH) compared to the unsubstituted analog (Z=H): incubated with human microsomes
Method: The compounds were incubated (at 1 μM) with characterized, pooled human liver microsomes (0.5 mg microsomal protein/mL incubation) at 37° C. in phosphate buffer (50 mM potassium phosphate, pH 7.4) The incubations were started by the addition of a cofactor (1 mM NADPH (Nicotinamide adenine dinucleotide phosphate in reduced form) and terminated by the addition of acetonitrile (1:1). The incubations were analyzed by LC/MS and a time curve for the disappearance of the parent compound was constructed. Control incubations without microsomes, or with acetonitrile addition before the addition of the cofactor, were used to check for non-enzymatic degradation/disappearance. […] The fraction escaping hepatic clearance, FH, given in %, was calculated from the hepatic clearance according to the following equation: [formula] Thus, the higher the FH, the more metabolically stable the compound. Solubility

[3] = biological target: T1, human mGluR5d (Homo sapiens, UniProt P41594); assay: FLIPR analysis of [Ca2+]i mobilization, antagonist activity; type: cell-based; settings: cells expressing human mGluR5d, read-out: IC50 mGluR5
T1 construct: expressed in transfected cells; GHEK cells stably expressing the receptor are named only for the IP3 assay
T1 sequence (P41594 21-942 isoform P41594-3 limits assumed): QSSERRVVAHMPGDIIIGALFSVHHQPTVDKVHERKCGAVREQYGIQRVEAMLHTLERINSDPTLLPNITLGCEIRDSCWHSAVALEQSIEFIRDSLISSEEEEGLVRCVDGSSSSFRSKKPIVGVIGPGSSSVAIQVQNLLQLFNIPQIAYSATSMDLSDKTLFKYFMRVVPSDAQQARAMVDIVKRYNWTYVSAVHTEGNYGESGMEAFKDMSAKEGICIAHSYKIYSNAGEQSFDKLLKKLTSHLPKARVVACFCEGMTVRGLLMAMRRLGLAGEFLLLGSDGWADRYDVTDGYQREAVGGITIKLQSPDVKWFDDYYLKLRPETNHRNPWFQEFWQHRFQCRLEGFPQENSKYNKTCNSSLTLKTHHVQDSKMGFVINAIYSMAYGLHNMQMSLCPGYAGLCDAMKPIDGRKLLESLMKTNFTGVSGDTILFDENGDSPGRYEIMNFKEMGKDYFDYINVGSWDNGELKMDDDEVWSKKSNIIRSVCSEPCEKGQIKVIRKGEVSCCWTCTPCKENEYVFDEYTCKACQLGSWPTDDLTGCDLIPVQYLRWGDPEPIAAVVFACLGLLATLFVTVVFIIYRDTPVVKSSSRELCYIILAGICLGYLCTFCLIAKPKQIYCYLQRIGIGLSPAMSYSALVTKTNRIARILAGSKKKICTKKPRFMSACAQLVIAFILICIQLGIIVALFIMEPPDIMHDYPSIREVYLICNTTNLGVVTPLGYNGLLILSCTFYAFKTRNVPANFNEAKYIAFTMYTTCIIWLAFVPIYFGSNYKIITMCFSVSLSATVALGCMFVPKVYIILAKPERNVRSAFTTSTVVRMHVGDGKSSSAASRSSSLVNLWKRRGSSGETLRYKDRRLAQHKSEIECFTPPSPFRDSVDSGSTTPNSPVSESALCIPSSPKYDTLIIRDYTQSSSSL
Method: FLIPR experiments were done using a laser setting of 0.800 W and a 0.4 second CCD camera shutter speed. Each FLIPR experiment was initiated with 160 μl of buffer present in each well of the cell plate. After each addition of the compound, the fluorescence signal was sampled 50 times at 1 second intervals followed by 3 samples at 5 second intervals. Responses were measured as the peak height of the response within the sample period. EC50 and IC50 determinations were made from data obtained from 8-point concentration response curves (CRC) performed in duplicate. Agonist CRC were generated by scaling all responses to the maximal response observed for the plate. Antagonist block of the agonist challenge was normalized to the average response of the agonist challenge in 14 control wells on the same plate.
Cell cultures in the 96-well plates were loaded with a 4 μM solution of acetoxymethyl ester form of the fluorescent calcium indicator fluo-3 (Molecular Probes, Eugene, Oreg.) in 0.01% pluronic.
Each FLIPR experiment was initiated with 160 μl of buffer present in each well of the cell plate. […] After each addition the fluorescence signal was sampled 50 times at 1 second intervals followed by 3 samples at 5 second intervals. Responses were measured as the peak height of the response within the sample period. […]

| Compound | solubility at 24 h [1] | increase in solubility compared to the corresponding bromo derivative (Z=Br) ([1]; aq. solubility) | h.mic. FH (fraction escaping hepatic clearance) [2] | human microsomal metabolic stability (h.mic. FH) compared to the unsubstituted analog (Z=H) [2] | IC50 [3] |
| --- | --- | --- | --- | --- | --- |
| N#Cc1cc(F)cc(-n2nnc(-c3ccc(F)cn3)n2)c1 [3-Fluoro-5-[5-(5-fluoropyridin-2-yl)-2H-tetrazol-2-yl]benzonitrile] | 4.3 µM (≈ 1.22 µg/mL) | 22 fold | 71% | significantly more stable |  |
| N#Cc1cc(F)cc(-n2nnc(-c3ccc(Br)cn3)n2)c1 [3-[5-(5-bromopyridin-2-yl)-2H-tetrazol-2-yl]-5-fluorobenzonitrile] | 0.2 µM (≈ 0.069 µg/mL) |  | 92% | significantly higher human metabolic stability |  |
| N#Cc1cc(F)cc(-n2nnc(-c3ccccn3)n2)c1 [3-fluoro-5-(5-pyridin-2-yl-2H-tetrazol-2-yl)benzonitrile] | 43 µM (≈ 11.4 µg/mL) |  | 10% |  | 0.012 µM |
